Results published in patent publication US20190010167A1, “INHIBITORS OF THE MENIN-MLL INTERACTION” (Vitae Pharmaceuticals, Inc., priority 2015, published 2019).

Tests used:
[1] = target: T1, mutated menin / MLL-AF9 fusion protein (Homo sapiens, UniProt O00255); assay: AlphaLISA menin/MLL binding assay, mutated menin (Assay 1); settings: biotinylated mutated menin 5 nM, MLL-AF9-FLAG lysate, read-out: Assay 1 Mutant Menin IC50
T1 construct: biotinylated (1) wild-type menin or (2) mutated menin (described in Nature (2012) Vol. 482, pp. 542-548); fused on or other part: Biotin attached chemically with Sulfo-NHS-Biotin; This is a label, not a fusion
T1 sequence (O00255 1-610): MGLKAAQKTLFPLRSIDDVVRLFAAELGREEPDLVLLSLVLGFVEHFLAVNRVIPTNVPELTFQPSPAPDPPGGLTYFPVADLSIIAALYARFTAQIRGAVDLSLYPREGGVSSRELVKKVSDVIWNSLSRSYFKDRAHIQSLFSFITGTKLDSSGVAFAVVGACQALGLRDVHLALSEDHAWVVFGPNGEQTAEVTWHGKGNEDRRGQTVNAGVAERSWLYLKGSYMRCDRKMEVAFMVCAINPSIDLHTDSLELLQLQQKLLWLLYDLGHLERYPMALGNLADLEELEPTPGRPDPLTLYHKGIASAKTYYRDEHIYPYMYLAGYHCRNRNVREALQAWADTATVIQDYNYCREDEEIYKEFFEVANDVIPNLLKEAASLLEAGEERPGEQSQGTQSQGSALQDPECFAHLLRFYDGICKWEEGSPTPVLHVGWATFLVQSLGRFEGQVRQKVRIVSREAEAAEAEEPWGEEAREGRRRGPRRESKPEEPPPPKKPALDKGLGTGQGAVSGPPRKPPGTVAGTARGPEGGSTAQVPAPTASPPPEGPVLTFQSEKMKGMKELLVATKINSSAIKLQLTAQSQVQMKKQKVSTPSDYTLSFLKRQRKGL
Method: Potencies of inhibitor compounds against menin/MLL binding were assessed by AlphaLISA assay using biotinylated (1) wild-type menin or (2) mutated menin (described in Nature (2012) Vol. 482, pp. 542-548) and MLL-AF9 fusion protein bearing a FLAG epitope at its C-terminus. Menin proteins were expressed in E. coli and covalently modified with biotin using EZ-Link™ Sulfo-NHS-Biotin (ThermoFisher Cat. No. 21217) according to manufacturer's protocol. MLL1-1,396 fused to AF91-92 and the C-terminal FLAG peptide was expressed in HEK293 cells and used as a lysate cleared at 21,000×g for 10 min.
Compounds (2 μL of solutions in DMSO) were dispensed in white 96-well half-area plates (Corning Cat. No. 3693) and incubated for 30 min at RT with 5 nM biotinylated menin and appropriate amount of MLL-AF9-FLAG lysate in 40 μL of 50 mM Tris-HCl buffer pH 7.4 containing 5% (v/v) DMSO, 50 mM NaCl, 0.01% (w/v) bovine serum albumin (BSA) and 1 mM DTT. To this incubation mixture, 40 μl of AlphaLISA anti-FLAG acceptor (PerkinElmer Cat. No. AL112C) and streptavidin donor (PerkinElmer Cat. No. 6760002) beads (10 μg/mL each) was added and incubation continued at RT for 60 min. Alpha (amplified luminescent proximity homogeneous assay) signal was measured on an Envision multi-label plate reader at the end of the incubation. All steps were conducted under dim fluorescent light.
These percent inhibition values were regressed against compound concentrations in the assay using four parameter logit non-linear curve fitting (XLFit, IDBS). The IC50 values were derived from the curve fitting as inflection points on the dose-response curves and are set out in Table 1 below.

[2] = target: T2, menin/MLL (Gal4-Menin and MLL1-46-VP16) in HEK293 cells (Homo sapiens, UniProt O00255); assay: Mammalian cellular two-hybrid assay in HEK293 cells (Assay 2, cell assay); assay type: cell-based; settings: Gal4-Menin/MLL1-46-VP16 two-hybrid, NanoLuc luciferase reporter, 16-18 h
T2 construct: expressed in transfected cells; host or cells: HEK293 (ATCC)
T2 sequence (P04386 1-147 partner limits assumed, species assumed, one chain of several): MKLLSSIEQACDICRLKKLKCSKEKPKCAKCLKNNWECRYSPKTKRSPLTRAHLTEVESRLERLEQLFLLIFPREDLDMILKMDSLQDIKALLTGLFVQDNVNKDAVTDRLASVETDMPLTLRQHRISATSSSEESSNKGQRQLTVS
Summary of the method: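 HEK293 cells co-transfected with Gal4-Menin, MLL1-46-VP16 and a 4×UAS secreted NanoLuc reporter, then exposed to compound for 16-18 h at 37 °C in 10% delipidated FBS (0.1% DMSO). Inhibition from secreted NanoLuc relative to DMSO and 5 μM MI-2-2, with 4-parameter IC50 fit. CellTiter-Glo measured toxicity.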

[3] = target: T3, wild-type menin / MLL-AF9 fusion protein (Homo sapiens, UniProt O00255); assay: AlphaLISA menin/MLL binding assay, wild-type menin (Assay 1); settings: biotinylated wild-type menin 5 nM, MLL-AF9-FLAG lysate
T3 construct: made in house; host or cells: E. coli (menin); HEK293 cleared lysate (MLL-AF9-FLAG)
T3 sequence (O00255 1-610): T1 sequence (O00255 1-610)
Summary of the method: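 Biotinylated wild-type or mutated menin (5 nM, E. coli-expressed) was preincubated 30 min at RT with compound and HEK293 lysate containing MLL1-1,396–AF9 1-92–FLAG. Buffer was 50 mM Tris-HCl pH 7.4, 5% DMSO, 50 mM NaCl, 0.01% BSA, 1 mM DTT. Anti-FLAG acceptor and streptavidin donor beads (10 μg/mL each) were then added for 60 min. IC50 came from a four-parameter fit of the Alpha signal inhibition.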

SMILES | IC50 [1] [µM] | IC50 [2] [µM] | IC50 [3] [µM]
CC1(C)CN=C(N2CC3(CCN(c4ncnc5sc(CC(F)(F)F)cc45)CC3)C2)S1 [Example 10, 4-(2-(5,5-dimethyl-4,5-dihydrothiazol-2-yl)-2,7-diazaspiro[3.5]nonan-7-yl)-6-(2,2,2-trifluoroethyl)thieno[2,3-d]pyrimidine] | 0.1 to 1 |  | 
CC(C)N1CCC2(CCN(c3ncnc4sc(CC(F)(F)F)cc34)CC2)C1 [Example 25, 4-(2-isopropyl-2,8-diazaspiro[4.5]decan-8-yl)-6-(2,2,2-trifluoroethyl)thieno[2,3-d]pyrimidine] | 0.1 to 1 | ≥ 1 | 
CC1(C)CN=C(N2CCC3(CCN(c4ncnc5sc(CC(F)(F)F)cc45)CC3)C2)S1 [Example 27, 4-(2-(5,5-dimethyl-4,5-dihydrothiazol-2-yl)-2,8-diazaspiro[4.5]decan-8-yl)-6-(2,2,2-trifluoroethyl)thieno[2,3-d]pyrimidine] | 0.1 to 1 |  | 
CC1(C)CN=C(N2CC3(C2)CN(c2ncnc4ccc(OC(F)(F)F)cc24)C3)S1 [Example 88, 5,5-dimethyl-2-(6-(6-(trifluoromethoxy)quinazolin-4-yl)-2,6-diazaspiro[3.3]heptan-2-yl)-4,5-dihydrothiazole] | ≥ 1 |  | 
COC(=O)N[C@H]1CC[C@H](CN2CCC3(CC2)CN(c2ncnc4sc(CC(F)(F)F)cc24)C3)CC1 [Example 107, methyl ((1r,4r)-4-((2-(6-(2,2,2-trifluoroethyl)thieno[2,3-d]pyrimidin-4-yl)-2,7-diazaspiro[3.5]nonan-7-yl)methyl)cyclohexyl)carbamate] |  | 0.1 to 1 | < 0.1
CC(C)CN1CC2(CCN(c3ncnc4sc(CC(F)(F)F)cc34)C2)C1 [Example 108, 4-(2-isobutyl-2,6-diazaspiro[3.4]octan-6-yl)-6-(2,2,2-trifluoroethyl)thieno[2,3-d]pyrimidine] |  | 0.1 to 1 | < 0.1
FC(F)(F)Cc1cc2c(N3CCC4(CN(CC5CCOCC5)C4)C3)ncnc2s1 [Example 109, 4-(2-((tetrahydro-2H-pyran-4-yl)methyl)-2,6-diazaspiro[3.4]octan-6-yl)-6-(2,2,2-trifluoroethyl)thieno[2,3-d]pyrimidine] |  | 0.1 to 1 | 0.1 to 1
CCC(C)CN1CC2(CCN(c3ncnc4sc(CC(F)(F)F)cc34)C2)C1 (centres unmarked) [Example 110, 4-(2-(2-methylbutyl)-2,6-diazaspiro[3.4]octan-6-yl)-6-(2,2,2-trifluoroethyl)thieno[2,3-d]pyrimidine] |  | 0.1 to 1 | 0.1 to 1
O=c1[nH]c2cc(CN3CCC4(CCN(c5ncnc6cc(CC(F)(F)F)sc56)C4)C3)ccc2n1CCO (centres unmarked) [Example 119, 1-(2-hydroxyethyl)-5-((7-(6-(2,2,2-trifluoroethyl)thieno[3,2-d]pyrimidin-4-yl)-2,7-diazaspiro[4.4]nonan-2-yl)methyl)-1H-benzo[d]imidazol-2(3H)-one] |  | 0.1 to 1 | < 0.1
O=c1[nH]c2ccc(CN3CCC4(CCN(c5ncnc6sc(CC(F)(F)F)cc56)C4)C3)cc2n1CCO (centres unmarked) [Example 120] |  | ≥ 1 | < 0.1
